Values of other authors, collected in patent publication US20160074333A1, “Pharmaceutical compositions of tamsulosin or salts thereof” (WOCKHARDT LIMITED, priority 2013, published 2016).
Counter-ions that a name gives are not always drawn. Like-named read-outs stand apart in the source and are kept apart here.

## CCOc1ccccc1OCCN[C@H](C)Cc1ccc(OC)c(S(N)(=O)=O)c1 [Tamsulosin hydrochloride, (-)-(R)-5-[2-[[2-(o-Ethoxyphenoxy)ethyl]amino]propyl]-2-methoxybenzene sulfonamide, monohydrochloride]
In ethanol
  solubility: slightly soluble
In ether
  solubility: practically insoluble
In glacial acetic acid
  solubility: slightly soluble
In methanol
  solubility: sparingly soluble
In water
  solubility: sparingly soluble
